Where a SMILES comes first, the peptide text is derived from it. Bridges are numbered along the chain shown (N, C = ends). [ ]: non-standard residue; d: D form. hArg = N=C(N)NCCCC[C@H](N)C(=O)O; Mpa = O=C(O)CCS
Legend:
CXCR4 [1] = target: T1, CXCR4 (Homo sapiens, UniProt P61073); assay: Ligand efficiency from ChEMBL19 CXCR4 ligand data; conditions: LE = 1.4pAffinity/nheavy_atoms, from ChEMBL19 CXCR4 data ref 28
CXCR4 [2] = target: T1, CXCR4; conditions: cited from earlier work
CXCR4 [3] = target: T1, CXCR4; assay: CXCR4 arrestin assay; format: cell-based; conditions: 30 μM, exploitive and hit expansion iterations

T1 sequence (P61073 whole entry): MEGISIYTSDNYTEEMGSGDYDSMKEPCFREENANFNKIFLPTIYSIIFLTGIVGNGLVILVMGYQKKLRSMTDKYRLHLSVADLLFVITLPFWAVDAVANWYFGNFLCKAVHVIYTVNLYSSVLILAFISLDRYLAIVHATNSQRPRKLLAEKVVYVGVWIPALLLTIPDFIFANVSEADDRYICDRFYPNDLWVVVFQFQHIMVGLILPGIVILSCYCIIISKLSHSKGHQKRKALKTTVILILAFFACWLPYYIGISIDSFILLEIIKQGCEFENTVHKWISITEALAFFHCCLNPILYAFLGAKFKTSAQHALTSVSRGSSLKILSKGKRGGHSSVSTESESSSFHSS

Row | Compound | ligand efficiency (LE) (CXCR4 [1]) | also measured
1 | c1cc2nc(c1)CCNCCN(Cc1ccc(CN3CCNCCc4cccc(n4)CCNCC3)cc1)CCNCC2 [CHEMBL1202231] | 0.32 | –
2 | c1ccc(NCc2ccc(CNc3ccccn3)cc2)nc1 [ChEMBL237830] | 0.56 | –
3 | C[C@H](NC(=O)[C@H](CCCN=C(N)N)NC(=O)c1ccc(CNCc2ccccn2)cc1)c1cccc2ccccc12 [KRH-1636] | – | EC50 (CXCR4 [2]): 18 nM
4 | N=C(N)NCCCC[C@@H]1NC(=O)CCSSC[C@@H](C(N)=O)NC(=O)[C@@H]2CCCN2C(=O)[C@H](Cc2c[nH]c3ccccc23)NC(=O)[C@H](CC(=O)O)NC(=O)CNC1=O [integrilin] ([Mpa][hArg]GDWPC-NH2; disulfide 1-7 (inferred)) | – | activity in the arrestin assay (CXCR4 [3]): lack of activity

Reference: publication PMC6013791 (Chemical Science, 2016)
